In paper PMC2742562 (ACS chemical biology, 2009):

Target: glucose/galactose binding protein (GGBP) (Escherichia coli, UniProt P0AEE5)
Assay: […] galactose competition binding assay

glucose/galactose binding protein (GGBP), sequence (P0AEE5 24-332 limits assumed): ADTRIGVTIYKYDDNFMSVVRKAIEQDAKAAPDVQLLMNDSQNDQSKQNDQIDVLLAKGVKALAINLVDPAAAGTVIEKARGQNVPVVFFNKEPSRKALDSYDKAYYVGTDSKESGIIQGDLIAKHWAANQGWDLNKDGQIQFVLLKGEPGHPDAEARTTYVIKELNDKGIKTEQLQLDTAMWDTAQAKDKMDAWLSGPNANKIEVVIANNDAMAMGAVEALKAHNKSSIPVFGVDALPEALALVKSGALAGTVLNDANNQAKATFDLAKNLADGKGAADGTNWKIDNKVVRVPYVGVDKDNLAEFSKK

**Q.** `OC[C@H]1O[C@@H](OCCO[C@H]2[C@H](O)[C@@H](CO)OC(O)[C@@H]2O)[C@H](O)[C@@H](O)[C@@H]1O` (stereo partly drawn) [DWI, 3-O-(2'-beta-D-glucopyanosyloxyethyl)-D-glucose] was tested. Which Ki did it give?
**A.** 27 ± 7 µM
